Active and inactive are the calls of the source. The calls are words filed in the database; no cut-off is given here.
Tests used:
HeLa [1] = test: Upregulation of GLA mRNA expression in human HeLa cells at 10 uM incubated for 24 hrs by qRT-PCR analysis; assay type: functional, cell-based
[2] = Volume of distribution at steady state in ICR mouse measured upto 24 hrs by LC-MS/MS analysis; assay type: ADME; details: in vivo, read-out: Vdss
[3] = Tmax in ICR mouse at 10 mg/kg, ip measured upto 24 hrs by LC-MS/MS analysis; assay type: ADME, organism-based; details: in vivo
Mus musculus [4] = test: Anti-alzheimer activity against APP/PS1 mouse model assessed as upregulation of CTSF mRNA expression in brain at 10 mg/kg, ip administered for 30 days; assay type: functional, organism-based; details: time 30.0 day
[5] = Induction of TFEB nuclear translocation in human HeLa cells expressing EGFP at 30 uM measured at 6 hrs by fluorescence microscopic analysis; assay type: functional
[6] = target: T1, Sodium-dependent dopamine transporter (Homo sapiens, UniProt Q01959); test: Displacement of [3H] dopamine from DAT in HEK293 cells incubated for 15 mins by microbeta analysis; assay type: cell-based
T1 sequence (Q01959 whole entry): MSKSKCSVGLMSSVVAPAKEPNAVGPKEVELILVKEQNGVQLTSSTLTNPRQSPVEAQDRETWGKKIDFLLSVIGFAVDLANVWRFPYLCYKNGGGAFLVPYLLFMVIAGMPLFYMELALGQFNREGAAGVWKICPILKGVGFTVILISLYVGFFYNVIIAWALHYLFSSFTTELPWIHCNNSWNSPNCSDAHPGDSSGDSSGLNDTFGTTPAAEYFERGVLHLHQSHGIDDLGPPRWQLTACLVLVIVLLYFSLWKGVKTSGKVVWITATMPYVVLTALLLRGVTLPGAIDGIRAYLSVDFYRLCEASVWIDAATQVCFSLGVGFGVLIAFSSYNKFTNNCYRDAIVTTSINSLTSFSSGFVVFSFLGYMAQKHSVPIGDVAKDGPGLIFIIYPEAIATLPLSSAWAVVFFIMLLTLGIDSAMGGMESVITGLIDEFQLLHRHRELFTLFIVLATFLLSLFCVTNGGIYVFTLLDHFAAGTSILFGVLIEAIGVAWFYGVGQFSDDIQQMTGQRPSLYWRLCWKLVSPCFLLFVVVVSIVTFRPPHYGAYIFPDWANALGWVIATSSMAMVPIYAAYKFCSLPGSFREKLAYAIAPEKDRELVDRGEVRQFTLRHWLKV

[7] = target: T1, Sodium-dependent dopamine transporter; test: Displacement of [3H] dopamine from DAT in HEK293 cells incubated for 1 hr by topcount plate reader analysis; assay type: cell-based
[8] = target: T1, Sodium-dependent dopamine transporter; test: Displacement of [3H] dopamine from DAT in HEK293 cells assessed as inhibition constant incubated for 1 hr by topcount plate reader analysis; assay type: cell-based
[9] = Acute toxicity in C57BL/6J mouse assessed as brain damage at 50 mg/kg, ip measured upto 14 days by H and E staining based analysis; assay type: organism-based; details: in vivo, 336 h, time < 14 day
Mus musculus [10] = test: Anti-alzheimer activity against APP/PS1 mouse model assessed as upregulation of WIPL1 mRNA expression in brain at 10 mg/kg, ip administered for 30 days; assay type: functional, organism-based; details: time 30.0 day
[11] = Cmax in ICR mouse at 10 mg/kg, ip measured upto 24 hrs by LC-MS/MS analysis; assay type: ADME, organism-based; details: in vivo
HeLa [12] = test: Upregulation of […] mRNA expression in human HeLa cells at 10 uM incubated for 24 hrs by qRT-PCR analysis; assay type: functional, cell-based
HeLa [13] = test: Upregulation of OPTN mRNA expression in human HeLa cells at 10 uM incubated for 24 hrs by qRT-PCR analysis; assay type: functional, cell-based
HeLa [14] = test: Upregulation of CTSD mRNA expression in TFEB knockout human HeLa cells at 10 uM incubated for 24 hrs by qRT-PCR analysis; assay type: functional, cell-based
[15] = Acute toxicity in C57BL/6J mouse assessed as change in body weight at 50 mg/kg, ip measured upto 14 days; assay type: organism-based; details: in vivo, 336 h, time < 14 day
[16] = Induction of TFEB nuclear translocation in human HeLa cells expressing EGFP at 10 uM measured at 6 hrs by fluorescence microscopic analysis; assay type: functional
[17] = AUC (0 to t) in ICR mouse at 20 mg/kg, po measured upto 24 hrs by LC-MS/MS analysis; assay type: ADME, organism-based; details: in vivo
HeLa [18] = test: Cytotoxicity against human HeLa cells assessed as effect on cell viability at 10 uM incubated for 24 hrs; assay type: functional, cell-based
HeLa [19] = test: Upregulation of p62 mRNA expression in human HeLa cells at 10 uM incubated for 24 hrs by qRT-PCR analysis; assay type: functional, cell-based
HeLa [20] = test: Upregulation of CTSF mRNA expression in human HeLa cells at 10 uM incubated for 24 hrs by qRT-PCR analysis; assay type: functional, cell-based
HeLa [21] = test: Upregulation of HEXA mRNA expression in TFEB knockout human HeLa cells at 10 uM incubated for 24 hrs by qRT-PCR analysis; assay type: functional, cell-based
HeLa [22] = test: Induction of lysosome biogenesis in human HeLa cells assessed as increase in number of acidified lysosomes at 10 uM incubated for 24 hrs by LysiTracker red staining based flow cytometry analysis; assay type: functional, cell-based
[23] = Tmax in ICR mouse at 20 mg/kg, po measured upto 24 hrs by LC-MS/MS analysis; assay type: ADME, organism-based; details: in vivo
HeLa [24] = test: Upregulation of CTSD mRNA expression in human HeLa cells at 10 uM incubated for 24 hrs by qRT-PCR analysis; assay type: functional, cell-based
[25] = Toxicity in APP/PS1 mouse model assessed as change in body weight at 10 mg/kg, ip administered every other day for 30 days; assay type: organism-based; details: in vivo, 720 h, time 30 day
HeLa [26] = test: Induction of cell cycle arrest in human HeLa cells assessed as effect on CDK4 level at 10 uM incubated for 12 hrs by qRT-PCR analysis; assay type: functional, cell-based
[27] = Oral bioavailability in ICR mouse at 20 mg/kg measured upto 24 hrs by LC-MS/MS analysis; assay type: ADME, organism-based; details: in vivo
SH-SY5Y = test: Cytotoxicity against human SH-SY5Y cells assessed as effect on cell viability at 10 uM incubated for 24 hrs; assay type: functional, cell-based
[28] = Clearance in ICR mouse at 5 mg/kg, iv measured upto 24 hrs by LC-MS/MS analysis; assay type: ADME, organism-based; details: in vivo
Mus musculus [29] = test: Anti-alzheimer activity against APP/PS1 mouse model assessed as upregulation of p62 mRNA expression in brain at 10 mg/kg, ip administered for 30 days; assay type: functional, organism-based; details: time 30.0 day
HeLa [30] = test: Upregulation of HEXA mRNA expression in human HeLa cells at 10 uM incubated for 24 hrs by qRT-PCR analysis; assay type: functional, cell-based
[31] = Half life in ICR mouse at 20 mg/kg, po measured upto 24 hrs by LC-MS/MS analysis; assay type: ADME, organism-based; details: in vivo

| SMILES | Activity (HeLa [1]) | Vd [2] [L/kg] | Tmax [3] [min] | Activity (Mus musculus [4]) | Activity [5] [%] | Activity [9] | Activity (Mus musculus [10]) | Cmax [11] [ng/mL] | Activity (HeLa [12]) | Activity (HeLa [13]) | Activity (HeLa [14]) | Activity [15] | Activity [16] [%] | Activity (HeLa [18]) | Activity (HeLa [19]) | Activity (HeLa [20]) | Activity (HeLa [21]) | Tmax [23] [min] | Activity (HeLa [24]) | Activity [25] | other results |
| --- | --- | --- | --- | --- | --- | --- | --- | --- | --- | --- | --- | --- | --- | --- | --- | --- | --- | --- | --- | --- | --- |
| c1ccc2c(CCC3NCCc4cc5c(cc43)OCO5)c[nH]c2c1 (stereo not given) | Active | 4.51 | 3 | Active | 98 | Non-Toxic | Active | 4720 | Active | Active | Active | Non-Toxic | 51 | Active | Active | Active | Active | 34.8 | Active | Non-Toxic | IC50 [6]: 6340 nM; IC50 [7]: 2150 nM; Ki [8]: 680 nM; AUC(0-t) at 24 h ([17]; ICR): 17100 ng·h/mL; Activity (HeLa [22]): Active; Activity (HeLa [26]): inactive; bioavailability ([27]; ICR): 76.4%; Activity (SH-SY5Y): Active; clearance [28]: 30.3 mL/min/kg; Activity (Mus musculus [29]): Active; Activity (HeLa [30]): Active; half-life [31]: 186 min |
| Fc1ccc2[nH]cc(CCC3c4cc5c(cc4CCN3CC3CCOCC3)OCO5)c2c1 (stereo not given) | Active | 36.8 | 81 | Active | 98 | Non-Toxic | Active | 146 | Active | Active | Active | Non-Toxic | 79 | Active | Active | Active | Active | 25.2 | Active | Non-Toxic | AUCt ([17]; po, 20 mg/kg, 24 h): 17.4 ng·h/mL; Activity (HeLa [26]): inactive; F ([27]; po, 20 mg/kg, 24 h): 6.73%; Activity (SH-SY5Y): Active; clearance [28]: 204 mL/min/kg; Activity (Mus musculus [29]): Active; Activity (HeLa [30]): Active; half-life [31]: 142 min |
